# From the supplement of paper PMC10307832
# How the values were obtained:
# Assay in all cases: relative viability (nuclei count vs DMSO), 5 days (fraction); higher = more cells survive
# [1] = test system: NCI-H322M
# Procedure, shortened: (§1)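 Each reported value is a median over duplicate plates. It expresses relative viability: treated-well nuclei count divided by vehicle-well nuclei count. Lung cancer cell lines in 1536-well plates were dosed by pin tool a day after seeding, alone with one drug or with a fixed anchor-drug dose plus five library-drug doses (not always all listed) in √10 steps, and nuclei were counted after 5 days.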
# [2] = test system: EMC-BAC-2
# Procedure, shortened: as §1
# [3] = test system: H3255
# Procedure, shortened: as §1
# [4] = test system: EPLC-272H
# Procedure, shortened: as §1
# [5] = test system: UMC-11
# Procedure, shortened: as §1
# [6] = test system: SK-MES-1
# Procedure, shortened: as §1
# [7] = test system: LCLC-97TM1
# Procedure, shortened: as §1
# [8] = test system: NCI-H2023
# Procedure, shortened: as §1
# [9] = test system: NCI-H650
# Procedure, shortened: as §1
# [10] = test system: NCI-H1355
# Procedure, shortened: as §1
# [11] = test system: NCI-H520
# Procedure, shortened: as §1
# [12] = test system: LCLC-103H
# Procedure, shortened: as §1
# [13] = test system: HCC-827
# Procedure, shortened: as §1
# [14] = test system: NCI-H1563
# Procedure, shortened: as §1
# [15] = test system: NCI-H1651
# Procedure, shortened: as §1
# [16] = test system: NCI-H1793
# Procedure, shortened: as §1
# [17] = test system: NCI-H2087
# Procedure, shortened: as §1
# [18] = test system: NCI-H1944
# Procedure, shortened: as §1
# [19] = test system: ChaGo-K-1
# Procedure, shortened: as §1
# [20] = test system: NCI-H2085
# Procedure, shortened: as §1
# [21] = test system: NCI-H2405
# Procedure, shortened: as §1
# [22] = test system: HCC-44
# Procedure, shortened: as §1
# [23] = test system: NCI-H1395
# Procedure, shortened: as §1
compound,measurement,setting,value
O=C(O)c1ccc(-c2c[nH]c3ncc(-c4ccccc4)cc23)cc1C1CCCC1 + CCNC(=O)c1noc(-c2cc(C(C)C)c(O)cc2O)c1-c1ccc(CN2CCOCC2)cc1 [Luminespib] (partner 0.01 µM),relative viability,[1]; first compound 0.04 µM,0.901
same,relative viability,[1]; first compound 0.1265 µM,0.934
same,relative viability,[1]; first compound 0.4 µM,0.846
same,relative viability,[1]; first compound 1.265 µM,0.664
same,relative viability,[2]; first compound 0.04 µM,1.19
same,relative viability,[2]; first compound 0.1265 µM,1.16
same,relative viability,[2]; first compound 0.4 µM,1.13
same,relative viability,[2]; first compound 1.265 µM,0.975
same,relative viability,[3]; first compound 0.04 µM,0.978
same,relative viability,[3]; first compound 0.1265 µM,0.983
same,relative viability,[3]; first compound 0.4 µM,0.855
same,relative viability,[3]; first compound 1.265 µM,0.778
same,relative viability,[4]; first compound 0.04 µM,0.628
same,relative viability,[4]; first compound 0.1265 µM,0.367
same,relative viability,[4]; first compound 0.4 µM,0.21
same,relative viability,[4]; first compound 1.265 µM,0.0951
same,relative viability,[5]; first compound 0.04 µM,0.919
same,relative viability,[5]; first compound 0.1265 µM,1.05
same,relative viability,[5]; first compound 0.4 µM,0.974
same,relative viability,[5]; first compound 1.265 µM,0.738
same,relative viability,[6]; first compound 0.04 µM,0.81
same,relative viability,[6]; first compound 0.1265 µM,0.973
same,relative viability,[6]; first compound 0.4 µM,0.596
same,relative viability,[6]; first compound 1.265 µM,0.35
same,relative viability,[7]; first compound 0.04 µM,0.858
same,relative viability,[7]; first compound 0.1265 µM,0.82
same,relative viability,[7]; first compound 0.4 µM,0.633
same,relative viability,[7]; first compound 1.265 µM,0.5
same,relative viability,[8]; first compound 0.04 µM,0.694
same,relative viability,[8]; first compound 0.1265 µM,1.01
same,relative viability,[8]; first compound 0.4 µM,0.75
same,relative viability,[8]; first compound 1.265 µM,0.34
same,relative viability,[9]; first compound 0.04 µM,0.866
same,relative viability,[9]; first compound 0.1265 µM,0.861
same,relative viability,[9]; first compound 0.4 µM,0.757
same,relative viability,[9]; first compound 1.265 µM,0.293
same,relative viability,[10]; first compound 0.04 µM,0.692
same,relative viability,[10]; first compound 0.1265 µM,0.622
same,relative viability,[10]; first compound 0.4 µM,0.464
same,relative viability,[10]; first compound 1.265 µM,0.384
same,relative viability,[11]; first compound 0.04 µM,0.223
same,relative viability,[11]; first compound 0.1265 µM,0.195
same,relative viability,[11]; first compound 0.4 µM,0.211
same,relative viability,[11]; first compound 1.265 µM,0.217
same,relative viability,[12]; first compound 0.04 µM,1.08
same,relative viability,[12]; first compound 0.1265 µM,1.05
same,relative viability,[12]; first compound 0.4 µM,0.84
same,relative viability,[12]; first compound 1.265 µM,0.713
same,relative viability,[13]; first compound 0.04 µM,0.602
same,relative viability,[13]; first compound 0.1265 µM,0.793
same,relative viability,[13]; first compound 0.4 µM,0.413
same,relative viability,[13]; first compound 1.265 µM,0.485
same,relative viability,[14]; first compound 0.04 µM,0.489
same,relative viability,[14]; first compound 0.1265 µM,0.599
same,relative viability,[14]; first compound 0.4 µM,0.42
same,relative viability,[14]; first compound 1.265 µM,0.508
same,relative viability,[15]; first compound 0.04 µM,0.927
same,relative viability,[15]; first compound 0.1265 µM,0.863
same,relative viability,[15]; first compound 0.4 µM,0.6
same,relative viability,[15]; first compound 1.265 µM,0.638
same,relative viability,[16]; first compound 0.04 µM,0.19
same,relative viability,[16]; first compound 0.1265 µM,0.166
same,relative viability,[16]; first compound 0.4 µM,0.151
same,relative viability,[16]; first compound 1.265 µM,0.148
same,relative viability,[17]; first compound 0.04 µM,0.182
same,relative viability,[17]; first compound 0.1265 µM,0.192
same,relative viability,[17]; first compound 0.4 µM,0.221
same,relative viability,[17]; first compound 1.265 µM,0.164
same,relative viability,[18]; first compound 0.04 µM,0.687
same,relative viability,[18]; first compound 0.1265 µM,0.836
same,relative viability,[18]; first compound 0.4 µM,0.716
same,relative viability,[18]; first compound 1.265 µM,0.702
same,relative viability,[19]; first compound 0.04 µM,0.712
same,relative viability,[19]; first compound 0.1265 µM,0.651
same,relative viability,[19]; first compound 0.4 µM,0.56
same,relative viability,[19]; first compound 1.265 µM,0.536
same,relative viability,[20]; first compound 0.04 µM,0.441
same,relative viability,[20]; first compound 0.1265 µM,0.422
same,relative viability,[20]; first compound 0.4 µM,0.488
same,relative viability,[20]; first compound 1.265 µM,0.31
same,relative viability,[21]; first compound 0.04 µM,0.778
same,relative viability,[21]; first compound 0.1265 µM,0.831
same,relative viability,[21]; first compound 0.4 µM,0.579
same,relative viability,[21]; first compound 1.265 µM,0.535
same,relative viability,[22]; first compound 0.04 µM,1.08
same,relative viability,[22]; first compound 0.1265 µM,1.44
same,relative viability,[22]; first compound 0.4 µM,0.868
same,relative viability,[22]; first compound 1.265 µM,0.448
same,relative viability,[23]; first compound 0.04 µM,0.726
same,relative viability,[23]; first compound 0.1265 µM,0.636
same,relative viability,[23]; first compound 0.4 µM,0.534
same,relative viability,[23]; first compound 1.265 µM,0.606
